From US20120021077A1, “SYNERGISTIC HERBAL COMPOSITION FOR TREATMENT OF RHEUMATIC AND MUSCULO-SKELETAL DISORDERS (RMSDS)” (priority 2007, published 2012)
Like-named read-outs stand apart in the source and are kept apart here.

Tests used:
[1] = test system: active Rheumatoid arthritis (RA); assay: NMITLI RA stage I/1, 24-week study; type: in vivo, patients; settings: week 24
From the text: NMITLI RA STAGE I/1: A randomized double blind comparator controlled parallel efficacy multicentric 24-week study in patients with active Rheumatoid arthritis (RA). In this study, formulation B and a proprietary ayurvedic formulation were compared to Hydroxychloroquine (HCQS), which is a popular DMARD (Disease Modifying Anti Rheumatoid Drug) in modern medicine rheumatology. As a complex painful inflammatory polyarticular disease, several efficacy variables, both clinical and laboratory were used to evaluate efficacy—Joint Counts for pain/tenderness and swelling, pain VAS, Patients Global assessments by the patient and physician, Health Assessment Questionnaire (a validated instrument for functional ability for Indian use), ESR, CRP and cytokines markers.
At baseline, all the groups were matched well in several demographic and efficacy measures. […] The overall safety of Ayurvedic formulations was better than HCQS.

[2] = test system: Acetic acid induced writhing in mice; assay: Acetic acid induced writhing (peripheral analgesic model); type: in vivo, albino mice
Method: (§1) Analgesic and anti-inflammatory activity studies for crude drug powders or extracts and formulations there off were carried out in known animal models. Central (formalin-induced model) and peripheral (acetic acid induced model) analgesic activities were studied in albino mice, while wistar rats were used for acute (carrageenan induced paw edema model) and sub-acute (turpentine oil-induced granuloma pouch model) anti-inflammatory activity. Suitable positive and negative controls were used for the studies. The data obtained is statistically significant (P value<0.05) and reproducible.
The total number of writhings following intra-peritoneal administration of 0.6% acetic acid, 10 ml/Kg body weight was recorded for 20 minutes, starting 10 minutes after injection. The animals were pre-treated with test samples (100, 200 and 400 mg/Kg p.o.) 30 minutes prior to above treatment, simultaneously using Aspirin (30 mg/kg p.o.) as a positive control.

[3] = test system: Carrageenan induced rat paw edema; assay: Carrageenan induced rat paw edema (acute anti-inflammatory); type: in vivo, wistar rats; settings: anti-inflammatory studies, model not specified
Method: as §1
Various doses of test sample (100, 200 and 400 mg/Kg p.o.) and standard Indomethacin (10 mg/kg p.o.) were administered to different groups of rats. Acute inflammation was induced half an hour after the above treatment by injection of 0.1 ml of freshly prepared 1% (in water) suspension of Carrageenan sodium in sub-planter region of rat right hind paw. Paw volume was measured by plethysmographic method initially and then at 1, 2, 3, 4, 24, 48 and 72 hrs after carrageenan injection.

[4] = test system: human OA cartilage explants; assay: Glycosaminoglycan (GAG) release from human OA cartilage explants; type: cell-based; settings: for Percent control GAG release: control = 100%
Method: Aqueous extracts of each capsule were freshly prepared as required. Contents of each capsule were solubilized in distilled water (10 mG/mL) by limited autoclaving. Each extract was filter sterilized prior to addition to cartilage explants at the required final concentration. This method of herbal extract preparation gave reproducible sterility and biological activity (Sumantran et al, 2007).
Patients (age 55-75 years) suffered from chronic osteoarthritis (OA) for 5-15 years prior to knee replacement surgery. Cartilage integrity was recorded by macroscopic and microscopic examination, using the Outerbridge scale. Only non-calcified, grade 1-2 articular cartilage from the lateral femoral condyles was used (Outerbridge 1961).
OA cartilage explants were cultured as described earlier (Sumantran et al, 2007). Briefly, explants were treated for 24 hours with/without sterile aqueous extracts of each capsule, and re-fed with growth media without herbal extract every two days for eight days. Conditioned media (CM) samples from each explant were collected prior to each re-feed. All CM samples per OA patient were thawed and assayed for GAG and NO levels simultaneously. Aggrecan assays were done after analysis of the GAG release data.
Total GAG levels in CM samples were measured by the dimethylmethylene blue assay using Chondroitin sulphate as a standard (Hoemann et al, 2002). NO levels in CM samples were estimated using the Griess reagent.
GAG content is expressed as microgram equivalents of Chondroitin sulphate. NO is expressed in micromoles/mG of explant/mL of CM. Units of Aggrecan are micrograms/mG of explant/mL of CM. Each marker is measured at each time point for each CM sample derived from each patient.
Levels of GAG, NO, or aggrecan levels in CM samples from explants at each time, point, per patient, treated with/without drug; were tested for statistical significance at the 95% confidence level using the Students 2 tailed t-test for paired samples. We calculated the effect of drug extracts in each CM sample, at each time point, per patient sample; using the ratio shown below:
Long-term versus Short-term activity: Long-term chondroprotective or anti-inflammatory activity is the ability of a drug to cause a statistically significant decrease in levels of GAG, aggrecan, or NO release by OA cartilage explants, relative to controls. This effect must be observed for at least 3 of the 4 time points during in vitro culture. Short-term activity is similar, but is detected at only 1 or 2 of the 4 time points tested.
In explant model of OA cartilage damage, GAG released by cartilage explants for 5 time points after a 24 hour drug treatment was measured. The effect on GAG release from cartilage explants of six OA patients treated with/without aqueous extracts of formulations C and C+G (100 microg/mLeach) was studied. […] Glucosamine and celecoxib each caused a statistically significant, 25% decrease in GAG release at time point 4, compared to controls.

[5] = test system: human OA cartilage explants; assay: Aggrecan release from human OA cartilage explants; type: cell-based
From the text: The kit uses a mixture of monoclonal antibodies to different epitopes of aggrecan, thereby ensuring sensitive and rapid estimation of aggrecan.

OA cartilage explants = assay: Nitric oxide (NO) release by OA cartilage explants; type: cell-based, human
[6] = test system: symptomatic knee osteoarthritis; assay: 16-week randomized double blind placebo and comparator controlled trial (NMITLI OA stage I/2); type: in vivo, patients
Method: NMITLI OA stage I/2: The said formulation was evaluated in a randomized double blind placebo controlled, multicentric 16 week clinical trial in 245 patients with symptomatic knee osteoarthritis. This was This was a 7 arm exploratory study, aimed to evaluate the efficacy and safety of 5 multiplant formulations using Shunthi-Guduchi as a common platform formulation in all. Glucosamine was the positive comparator.
Glucosamine was the positive comparator in this study.
The clinical trials are conducted on the following basis: • Randomized, Double Blind, parallel efficacy, Placebo & Comparator controlled study • 245 patients in a 7 arm (5 ayurvedic arms coded as A-E, placebo-1, Glucosamine-1) study of 16 weeks duration. • 35 patients in each arm • Monitored pain rescue medication (oral paracetamol) permitted on SOS basis • Intent to treat analysis with last observation carried forward • All arms well-matched at baseline for demographics and efficacy.

symptomatic OA knees = assay: Phase II 24-week comparator controlled trial of equivalence; type: in vivo, patients; set-up: W_DIFF, mean change between baseline and completion (Mean ± SD) / W_TOTAL, mean change between baseline and completion (Mean ± SD) / W_PAIN, mean change between baseline and completion (Mean ± SD) / W_STIFF, mean change between baseline and completion (Mean ± SD): scale not given here; settings: 24 weeks
From the text: • Phase II, Randomized, double blind, comparator (Celecoxib & Glucosamine) controlled, multicentric trial of equivalence. • Study Duration-24 weeks • Sample size (statistically powered 80% with α<0.05)—440 patients with symptomatic OA knees • 4 arm-2 Ayurvedic Interventions (C, C+) Celecoxib & Glucosamine, parallel efficacy study • 110 patients in each arm • No rescue medication permitted

mouse bone marrow = settings: test drugs 2000 mg/kg oral; cyclophosphamide 75 mg/kg i.p.
Method: Assessment of genotoxicity using mouse bone marrow micronucleus test and Salmonella reverse mutation test was carried out according to OECD guidelines No. 474 and 471 respectively.
Genotoxicity study was carried out using mammalian bone marrow micronucleus test with the limit test at a single dose level of 2000 mg/kg body weight. The test drug was suspended in 1% CMC (carboxy methyl cellulose) and administered orally to the experimental animals. Control animals received 1% CMC alone. […] Treatment was given for two consecutive days at 0 h and 24 h. […] All the mice were sacrificed at 6th hr. after the last treatment (30th hr. after first dose) and femur bones were excised and bone marrow contents were flushed with fetal calf serum. Bone marrow cells were centrifuged spread as a smear on glass slide and stained using Giemsa stain and May-Grunwald stain. […] Minimum 2000 PCEs were scored from each animal. All the slides were coded prior to scoring and decoded after completion of scoring.

[7] = test system: arachidonic acid (AA) induced platelet activation in human whole blood; settings: read-out: anti-platelet activity IC(50); cited from earlier work
[8] = time point 3, controls set at 100%
[9] = time point 4, controls set at 100%

CCN(CCO)CCCC(C)Nc1ccnc2cc(Cl)ccc12 (stereo not drawn) [HCQS, Hydroxychloroquine]
efficacy in RA, individual group analysis [1]: several significant improvements

N[C@H]1C(O)O[C@H](CO)[C@@H](O)[C@@H]1O (stereo partly drawn) [Glucosamine]
dose with significant peripheral analgesic activity [2]: 400 mg/kg | minimum dose with significant anti-inflammatory activity [3]: devoid of any anti-inflammatory activity | Glycosaminoglyan (GAG) release, decrease ([4]; long term = at least 3 of 4 time points, short term = 1 or 2): Short term | Percent control GAG release ([4]; time point 1, 100 microg/mL): 118.96 ± 34.74% | Percent control GAG release ([4]; time point 2, 100 microg/mL): 91.70 ± 16.55% | mean decrease of GAGs release relative to control explants ([4]; time point 3): 26% | Percent control GAG release ([4]; time point 3, 100 microg/mL): 86.52 ± 19.36% | mean decrease in levels of GAG and aggrecan release relative to controls ([4]; time point 3, both markers): 25-35% | levels of GAG released compared to controls (FIG. 1) [4, 8]: 73.72±9.69% | decrease in GAG release compared to controls ([4]; time point 4): 25% | mean decrease of GAGs release relative to control explants ([4]; time point 4): 20% | Percent control GAG release ([4]; time point 4, 100 microg/mL): 76.01 ± 19.96% | levels of GAG released compared to controls (FIG. 2) [4, 9]: 81.38±14.35% | Percent control GAG release ([4]; time point 5, 100 microg/mL): 87.15 ± 20.83% | Aggrecan (AGG) release, decrease [5]: Significant | mean decrease of Aggrecan release relative to control explants ([5]; time point 3): 34% | levels of aggrecan released compared to controls (FIG. 1) [5, 8]: 66.13±21.81% | Aggrecan release by cartilage explants ([5]; time point 4, 5 patients): not significantly decreased | levels of aggrecan released compared to controls (FIG. 2) [5, 9]: 86.07±21.71% | Nitric oxide (NO) release, decrease (OA cartilage explants): No significant | Nitric oxide (NO) release, decrease (OA cartilage explants; listed as gulosamine): did not significantly decrease | Daily consumption Paracetamol, Mean, AVR_TOTAL ([6]; all visits): 1.7950 | PATG (1-5 grades), baseline mean ([6]; baseline): 3.52 grades | PainVAS (0-100 mm), baseline mean ([6]; baseline): 64.8 mm | WOMAC Pain (0-20 score), baseline mean ([6]; baseline): 8.0 score | PATG, mean of percent change from baseline ([6]; over 16 weeks): 15.4% | PainVAS, mean of percent change from baseline ([6]; over 16 weeks): 21% | WOMAC Pain, mean of percent change from baseline ([6]; over 16 weeks): 14.2% | Daily consumption Paracetamol, Mean, AVR_PAR3 ([6]; visit 3): 2.0110 | Daily consumption Paracetamol, Mean, AVR_PAR4 ([6]; visit 4): 1.9038 | Daily consumption Paracetamol, Mean, AVR_PAR5 ([6]; visit 5): 1.9863 | Daily consumption Paracetamol, Mean, AVR_PAR6 ([6]; visit 6): 1.8846 | Daily consumption Paracetamol, Mean, AVR_PAR7 ([6]; visit 7): 1.3516 | PainVAS, mean change between baseline and completion (Mean ± SD) (symptomatic OA knees): −2.45 ± 2.23 | W_DIFF, mean change between baseline and completion (Mean ± SD) (symptomatic OA knees): −8.12 ± 10.89 | W_PAIN, mean change between baseline and completion (Mean ± SD) (symptomatic OA knees): −2.72 ± 3.26 | W_STIFF, mean change between baseline and completion (Mean ± SD) (symptomatic OA knees): −0.49 ± 1.61 | W_TOTAL, mean change between baseline and completion (Mean ± SD) (symptomatic OA knees): −11.33 ± 13.75

O=P1(N(CCCl)CCCl)NCCCO1 (stereo not drawn) [cyclophosphamide]
micronucleus induction / mutagenic effect (mouse bone marrow): significant increase in percent micronuclei: PCE ratio

Cc1ccc(-c2cc(C(F)(F)F)nn2-c2ccc(S(N)(=O)=O)cc2)cc1 [Celecoxib]
dose with significant peripheral analgesic activity [2]: 400 mg/kg | minimum dose with significant anti-inflammatory activity [3]: 200 mg/kg | Percent control GAG release ([4]; time point 1, 100 microg/mL): 90.24 ± 25.71% | Percent control GAG release ([4]; time point 2, 100 microg/mL): 84.87 ± 28.54% | Percent control GAG release ([4]; time point 3, 100 microg/mL): 87.83 ± 28.99% | decrease in GAG release compared to controls ([4]; time point 4): 25% | Percent control GAG release ([4]; time point 4, 100 microg/mL): 74.81 ± 31.83% | Percent control GAG release ([4]; time point 5, 100 microg/mL): 89.42 ± 31.98% | PainVAS, mean change between baseline and completion (Mean ± SD) (symptomatic OA knees): −1.82 ± 1.95 | W_DIFF, mean change between baseline and completion (Mean ± SD) (symptomatic OA knees): −6.93 ± 9.88 | W_PAIN, mean change between baseline and completion (Mean ± SD) (symptomatic OA knees): −1.89 ± 3.01 | W_STIFF, mean change between baseline and completion (Mean ± SD) (symptomatic OA knees): −0.34 ± 1.91 | W_TOTAL, mean change between baseline and completion (Mean ± SD) (symptomatic OA knees): −9.17 ± 13.05

CC(=O)Oc1ccccc1C(=O)O [aspirin]
IC50 [7]: 20 µM
